Entries after “also recorded” stand apart in the source; their conditions may differ. Like-named read-outs stand apart in the source and are kept apart here. Values belong to the compound of their own block, whether it stands above or below them.
Experiments:
[1] = system: Raji cells (a human B-cell Burkitt lymphoma line); assay: MTS cell viability assay, Raji; type: cell-based; conditions: for IC50: Homo sapiens, Raji (B-cell), MTS assay, n = 3, read-out: IC50 (μM) towards human tumor cell lines; for Effect of added copper, zinc or iron on CQ's cytotoxic effects / Interaction of clioquinol and DHA in killing cells (isobologram analysis): Raji cells; for Effect of added copper, zinc or iron on CQ's cytotoxic effects: ZnCl2, CuCl2, FeCl2 premixed with 5 μM clioquinol, 72 h; for Interaction of clioquinol and DHA in killing cells (isobologram analysis): ratio of IC50s
Method: (§1) Cell viability was determined with the MTS assay. IC50 was calculated using nonlinear regression analysis (Prism 3.0). […] Data (n=3) are presented as means±S.E.M.
(§2) The CellTiter 96® Aqueous ONE Solution (Promega) was used to assess cellular viability via reduction of (3-(4,5-dimethylthiazol-2-yl)-5-(3carboxymethoxyphenyl)-2-(4-sulfophenyl)-2H-tetrazolium (MTS). An ELISA-based apoptosis assay kit was from Roche, and an anti-poly (ADP-ribose) polymerase (PARP) monoclonal antibody was from BIOMOL Research Laboratories Inc. Nude mice were from Animal Technology Limited. All other reagents were analytic grade.
(§3) DHL-4 cells were provided by Dr. Linda Boxer (Stanford University), A2780 cells by Dr. Stephen Howell (University of California, San Diego), SiHa cells by Dr. Doris Benbrook (University of Oklahoma). All other cells were obtained from the ATCC. Cells were routinely grown in a […], in an environment containing 5% CO2, and passed every three days. Cell viability was analyzed using the MTS assay. […] The MTS assay was performed using the protocol provided by the manufacturer. In short, 20 μL of MTS solution was added to each well, and cells were incubated at 37° C. for 1-2 h. The optical density (490 nm) of each well was then determined.
(§4) IC50 values were calculated with nonlinear regression analysis using Graphpad Prism 3.0 (Graphpad Software, Inc.).
(§5) The cells studied included human B-cell lymphoma lines (DHL-4, Raji), breast (MCF-7, MDA-MB231), ovarian (A2780), cervical (SiHa), bladder (T24), and pancreatic (Mpanc-96) cancer cells.
as §1
Inventors reasoned that the cytotoxic effects of a chelator would be overcome by an excess of the chelated metal. Inventors added increasing concentrations of copper, zinc or iron to cells treated with CQ. […] Cell viability was expressed as a percentage of untreated cells.

tumor cells [2] = assay: Modulation of CQ-mediated cell killing by anti-oxidants and zinc chelators; type: cell-based; conditions: added to CQ-treated cells
Excerpt: Inventors then studied the effects of the addition of zinc chelators. Since Ca^++ has a lower affinity for EDTA than Zn^++, the addition of […] it.

tumor cells [3] = assay: Lipid peroxidation (thiobarbituric acid reactive substances) in CQ-treated tumor cells; type: cell-based; conditions: CQ treatment of tumor cells
[4] = system: immortalized endothelial cell line (EAhy.926); assay: Endothelial cell tube formation assay on Matrigel; type: cell-based; conditions: EAhy.926 on Matrigel
Method: An immortalized endothelial cell line (EAhy.926) was plated on Matrigel at a density of 15,000 per well in the absence or presence of the drugs indicated overnight at 37° C. Branch formation was used as a measure of tube formation. Each value was determined by averaging the number of branches per field (250×) in 3 representative fields. The final bFGF concentration was 5 ng/mL.

A2780 (ovarian) = assay: MTS cell viability assay, A2780; type: cell-based, human
Excerpt: as §2, §3, §4, §5

[5] = system: patients with Alzheimer's disease; conditions: cited from earlier work
[6] = system: A2780 (a human ovarian cancer line) xenograft; assay: A2780 xenograft in nude mice; type: in vivo; conditions: 28 mg/kg, 5 days a week
Method: Control animals were given Intralipid, without Cloquinol. […] Animals' weights were also measured 3 times a week.
In a separate experiment, nude mice were injected with the ovarian cancer cell line, A2780 and treated similarly. Mice were killed when the tumor reached 10% of their body weight.
Tumor size was calculated and expressed as […] .

[7] = system: mouse model of Alzheimer's disease; conditions: cited from earlier work
A2780 cells = assay: Cellular zinc level measurement with FluoZin-3; type: cell-based, human; conditions: A2780, 30 μM clioquinol, 1 h, increasing zinc
animals = conditions: high doses; cited from earlier work
SiHa (cervical) = assay: MTS cell viability assay, SiHa; type: cell-based; conditions: Homo sapiens, read-out: IC50 (μM) of clioquinol towards human tumor cell lines, 72 h, n = 3
Excerpt: as §2, §3, §4, §5

[8] = target: purified bovine erythrocyte SOD 1 (Bos taurus, UniProt P00442); assay: SOD1 activity, xanthine oxidase/cytochrome C method, purified enzyme; conditions: purified bovine erythrocyte SOD 1, in vitro
Chain of purified bovine erythrocyte SOD 1 (P00442 whole entry): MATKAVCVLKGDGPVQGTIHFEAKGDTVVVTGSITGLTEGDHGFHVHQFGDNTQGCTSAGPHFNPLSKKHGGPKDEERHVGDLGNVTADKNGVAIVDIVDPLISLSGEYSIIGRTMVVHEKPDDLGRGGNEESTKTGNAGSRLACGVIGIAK

M-panc-96 (pancreas) = assay: MTS cell viability assay, M-panc-96; type: cell-based; conditions: Homo sapiens, MPANC96, read-out: IC50 (μM) of clioquinol towards human tumor cell lines, 72 h, n = 3
Excerpt: as §2, §3, §4, §5

[9] = cited from earlier work
Raji cells = assay: Apoptosis ELISA (cytoplasmic histone-associated DNA fragments) and PARP/caspase-3 Western blot; type: cell-based, human; conditions: 24 h, PARP cleavage
Method: Western blot analysis was performed as previously described (57-59). Briefly, cells were lysed in a lysis buffer containing 50 MM Tris, pH 7.4, 50 mM NaCl, 0.5% NP-40, 50 mM NaF, 1 mM Na3VO4, 1 mM phenylmethylsulfonyl fluoride, 25 μg/ml leupeptin, and 25 μg/ml aprotinin. The lysates were centrifuged at 15,004×g for 15 min and the supernatants were collected for protein concentration determination, SDS-PAGE, and western blot analysis with specific antibodies, as described.
An ELISA-based kit (Roche Diagnostics Coup., Ind.) was used to quantitatively measure cytoplasmic histone-associated DNA fragments (mononucleosomes and oligonucleosomes), a measure of apoptosis, according to the manufacturer's instructions.
Cellular extracts were analyzed using an ELISA-based assay (Roche Diagnostics Corp., Indianapolis, Ind.) that quantifies release into the cytoplasm of histone-associated DNA fragments (mononucleosomes and oligonucleosomes), a measure of apoptosis. In addition, the lysates were subjected to SDS-PAGE followed by Western blotting using an anti-poly (ADP-ribose) polymerase (PARP) monoclonal antibody (clone C-2-10) to detect PARP cleavage, a sign of caspase-dependent apoptosis.
Cell lysates were prepared and apoptosis determined using an ELISA that quantified cytoplasmic DNA-histone complexes. […]

MDA-MB-231 (breast) = assay: MTS cell viability assay, MDA-MB-231; type: cell-based; conditions: Homo sapiens, read-out: IC50 (μM) of clioquinol towards human tumor cell lines, 72 h, n = 3
Excerpt: as §2, §3, §4, §5

albumin = albumin (Homo sapiens, UniProt P02768); conditions: read-out: Affinity of binding to albumin; cited from earlier work
Chain of albumin (P02768 25-609): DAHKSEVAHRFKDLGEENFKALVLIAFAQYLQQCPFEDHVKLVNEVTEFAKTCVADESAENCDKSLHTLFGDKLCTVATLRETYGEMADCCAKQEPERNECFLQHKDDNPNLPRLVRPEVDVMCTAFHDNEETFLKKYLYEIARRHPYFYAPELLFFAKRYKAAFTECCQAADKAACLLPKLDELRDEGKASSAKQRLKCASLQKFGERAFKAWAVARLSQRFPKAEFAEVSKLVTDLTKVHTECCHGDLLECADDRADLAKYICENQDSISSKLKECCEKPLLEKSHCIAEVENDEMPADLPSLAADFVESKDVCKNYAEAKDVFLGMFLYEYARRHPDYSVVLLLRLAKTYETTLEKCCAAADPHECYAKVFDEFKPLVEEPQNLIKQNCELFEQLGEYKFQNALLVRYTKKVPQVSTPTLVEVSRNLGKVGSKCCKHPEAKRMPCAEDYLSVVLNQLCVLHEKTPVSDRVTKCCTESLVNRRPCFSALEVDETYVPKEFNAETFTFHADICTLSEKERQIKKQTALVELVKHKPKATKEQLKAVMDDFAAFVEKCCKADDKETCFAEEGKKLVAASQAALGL

DHL-4 (B-cell) = assay: MTS cell viability assay, DHL-4; type: cell-based; conditions: Homo sapiens, read-out: IC50 (μM) of clioquinol towards human tumor cell lines, 72 h, n = 3
Excerpt: as §2, §3, §4, §5

T24 (Bladder) = assay: MTS cell viability assay, T24; type: cell-based; conditions: Homo sapiens, read-out: IC50 (μM) of clioquinol towards human tumor cell lines, 72 h, n = 3
Excerpt: as §2, §3, §4, §5

mouse brains = conditions: cited from earlier work
[10] = system: Raji (a human B-cell lymphoma line) xenograft
human cancer cell lines = assay: Viability of eight human cancer cell lines (overall statement); type: cell-based
Excerpt: as §2, §3, §4, §5

MCF-7 (breast) = assay: MTS cell viability assay, MCF-7; type: cell-based; conditions: Homo sapiens, MCF7, read-out: IC50 (μM) of clioquinol towards human tumor cell lines, 72 h, n = 3
Excerpt: as §2, §3, §4, §5

[11] = oral, 750 mg a day, Alzheimer's trial

IC50 [1]: 85 µM
Compound: CC/C=C\C/C=C\C/C=C\C/C=C\C/C=C\C/C=C\CCC(=O)O [DHA, docosahexaenoic acid]

Compound: Cc1c(C)c2c(c(C)c1O)CCC(C)(C(=O)O)O2 (stereo not drawn) [Trolox]
Protection of cells against CQ by anti-oxidants (tumor cells [2]): do not protect

Compound: Oc1c(I)cc(Cl)c2cccnc12 [clioquinol, 5-chloro-7-iodo-8-hydroxyquinoline]
Lipid peroxidation (thiobarbituric acid reactive substances) (tumor cells [3]): does not lead to increased lipid peroxidation
Anti-angiogenic effect (cell survival and tube branches) [4]: anti-angiogenic effect
Endothelial cell tube formation ([4]; bFGF 5 ng/mL, overnight): inhibited in a dose dependent manner
Exposure time sufficient for full cytotoxicity (A2780 (ovarian); A2780 cells, time-course studies): 8 h
IC50 (A2780 (ovarian); Homo sapiens, read-out: IC50 (μM) of clioquinol towards human tumor cell lines, A2780 (ovarian), 72 h, n = 3): 14.2 µM
Neurotoxicity in patients ([5]; Australia, 36 patients, 250, 500, 750 mg a day over nine months with vitamin B12): No neurotoxicity
Toxicity in patients ([5]; Sweden, 10 or 80 mg a day for 21 days): without experiencing toxicity
Survival of treated mice [6]: prolonged survival
Tumor growth [6]: inhibited tumor growth
Dose administered safely ([7]; mice): 30 mg/kg/day
Sedimentable amyloid in the brains ([7]; mouse model of Alzheimer's disease): decrease
Zinc ionophore activity (fluorescent zinc indicator) (A2780 cells): is a zinc ionophore
Zinc ionophore activity (fluorescent zinc indicator) (A2780 cells; listed as CQ): is indeed an ionophore
Neurotoxicity in animal studies (animals): can induce neurotoxicity
IC50 (SiHa (cervical)): 38.8 µM
Effect on purified SOD 1 [8]: inhibition
IC50 (M-panc-96 (pancreas)): 23.6 µM
Absorbed from the skin ([9]; man, in 12 hours): 40%
Excreted in the urine after absorption from the GI tract ([9]; man, in 72 hours): 25%
Serum half-life ([9]; man): about 12 hours
Trough blood levels [9, 11]: about 25 μM
Trough, steady-state blood levels [9, 11]: 7.6 µg/mL
Trough blood levels ([9]; oral, 750 mg a day, Alzheimer's trial, listed as CQ): 25 µM
Induction of apoptosis (Raji cells): induces apoptosis
IC50 (MDA-MB-231 (breast)): 19.9 µM
Kd (albumin): 0.01 µM
IC50 (DHL-4 (B-cell)): 6.7 µM
IC50 (T24 (Bladder)): 20 µM
Accumulation of vitamin B12 in the brain (mouse brains): decreased
Tumor growth ([10]; Raji xenograft, 28 mg/kg ip, 5 days a week): inhibition of tumor growth
Signs of toxicity ([10]; mouse, in vivo, ip, 28 mg/kg): No animals exhibited signs of toxicity
IC50 (human cancer cell lines; eight human cancer cell lines, 72 h, read-out: IC50s, range over all cell lines tested): 10 to 40 µM
IC50s in killing human cancer cells (in words) (human cancer cell lines; human cancer cells): low micromolar range
IC50 (MCF-7 (breast)): 29.7 µM
IC50 [1]: 12.4 µM
Effect of added copper, zinc or iron on CQ's cytotoxic effects [1]: potentiation
Effect of added copper, zinc or iron on CQ's cytotoxic effects ([1]; listed as CQ): potentiated
Interaction of clioquinol and DHA in killing cells (isobologram analysis) [1]: potentiate DHA; also recorded: synergy
Interaction of clioquinol and DHA in killing cells (isobologram analysis) ([1]; listed as CQ): synergism

Compound: O=C([O-])CN(CCN(CC(=O)[O-])CC(=O)[O-])CC(=O)[O-].[Ca+2].[Na+].[Na+] [CaEDTA]
Effect of zinc chelators on CQ-mediated cell killing (tumor cells [2]): decrease in CQ-mediated cell killing

Compound: O=C(O)CN(CCN(CC(=O)O)CC(=O)O)CC(=O)O.[Zn] [ZnEDTA]
Effect of zinc chelators on CQ-mediated cell killing (tumor cells [2]): not

Compound: vitamin E
Protection of cells against CQ by anti-oxidants (tumor cells [2]): do not protect

Compound: [O-][n+]1ccccc1S [pyrithione, 2-mercaptopyridine 1-oxide]
Anti-angiogenic effect (cell survival and tube branches) [4]: anti-angiogenic effect
